Data reported in patent publication US20230218563A1, “METHODS FOR TREATING OR PREVENTING CHRONIC KIDNEY DISEASE” (Arthrosi Therapeutics, Inc., priority 2020, published 2023).
Values joined by “and” are separate entries in the source; they are usually repeats but may differ in a detail not shown here. Equal entries are not always repeated. “Also recorded” adds a separate entry of the source. Where two headings read alike, the source gives them in different places.

Assays:
[1] = In vitro metabolism in human liver microsomes; type: in vitro ADME
Experimental: After pre-warming the mixture at 37° C. for 5 minutes, the reaction was initiated by the addition of 1 mM of NADPH and incubated for 60 minutes at 37° C. in a shaking water bath. The reaction was terminated by the addition of 0.5 mL ice-cold acetonitrile. Time 0 incubation was also performed by adding acetonitrile before the addition of microsomes to the incubation mixture as a reference sample for each species. Following vortex and centrifugation at 15,000 g for 3 minutes at room temperature, resulting supernatant was concentrated under nitrogen flow at 33° C., until approximately 0.5 mL of sample remained. The extract was then transferred to a 1.5-mL centrifuge vial for centrifugation at 15,000 g for 3 minutes. Finally, aliquots of the supernatant were transferred to HPLC vials for HPLC-MS analyses.
MS Analysis: Mass spectral analyses were performed on an Agilent single quadruple mass spectrometer equipped with an Agilent 1100 HPLC system. The mass spectrometer was fitted with an electrospray ionization (ESI) source and operated in a negative scan mode between 400 and 500 amu: […]

[2] = Phase 1 single dose study, plasma pharmacokinetics in healthy adult males; type: in vivo, human; details: for AUC(0-t) / AUC(0-inf) / Tmax / Vd/F / half-life / Cmax: male, human, plasma, po; for Vd/F: read-out: Vz/F
Experimental: The dose groups included Cohort 1 (15 mg or placebo, fasted, oral suspension), Cohort 2 (50 mg or placebo, fasted, suspension), Cohort 3 (100 mg or placebo, fasted, oral suspension), Cohort 4 (150 mg or placebo, fasted, oral suspension), Cohort 6 (50 mg or placebo, fed, oral suspension), and Cohort 7 (50 mg or placebo, fasted, oral capsule). […] An additional 8 subjects received placebo.
The results are consistent with observation in animal testing and higher exposure of S-enantiomer was attributed to the conversion of the R-enantiomer in vivo.

[3] = Phase 1 multiple ascending dose study, plasma pharmacokinetics in healthy adult males; type: in vivo; details: male, human, oral, fasted
Excerpt: An additional 6 subjects received placebo.
Accumulation were approximately 1.3 to 1.4 fold for C. and 1.4 to 1.5 fold for AUC0.24 (Table 12 and FIG. 8).

[4] = system: serum uric acid (sUA); test: Phase 2a cross-over study in adults with gout, serum uric acid; type: in vivo, human
[5] = system: urine albumin-to-creatinine ratio (UACR); test: Phase 2a study, UACR in a subject with albuminuria; type: in vivo, human; details: one subject with albuminuria, baseline 96 mg/g; sequential 7-day periods: Compound 1 50 mg (Day 7), Compound 1 50 mg/allopurinol 300 mg (Day 14), allopurinol 300 mg (Day 21)
Excerpt: Urine samples were collected for assessment of uric acid excretion. Laboratory safety tests, vital signs, and electrocardiograms were collected throughout the study.

[6] = 15 mg single oral, fasted, suspension (C1)
[7] = 50 mg single oral, fasted, IR capsule (C7)
[8] = 50 mg single oral, fasted, suspension (C2)
[9] = 50 mg single oral, fed vs fasted
[10] = 50 mg single oral, fed, suspension (C6)
[11] = 100 mg single oral, fasted, suspension (C3)
[12] = 150 mg single oral, fasted, suspension (C4)
[13] = dose proportionality, 15 to 150 mg fasted
[14] = gout patients (sUA>7 mg/dL), once daily, Compound 1 50 mg, febuxostat 40 mg, allopurinol 300 mg, alone or combined

## [2H]c1c([2H])c([2H])c2c(C(=O)c3cc(Br)c(O)c(Br)c3)c(C(C)O)oc2c1[2H] (racemic) [Compound 1, (3,5-dibromo-4-hydroxyphenyl)(2-(1-hydroxyethyl)benzofuran-3-yl-4,5,6,7-d4)methanone]
[1]; 60 minutes incubation
  stability in human microsomes: stable; also recorded: more stable than benzbromarone
[1]; human liver microsomes 0.5 mg/mL, NADPH, 60 minutes, 37° C.
  Parent, % MS response (parent left): 82.5%
[2]; [6]
  CL/F: 1.02 L/h
  Cmax (total): 1.06 µg/mL
[2]; [7]
  CL/F: 1.01 L/h
  Cmax (total): 3.97 µg/mL
[2]; [8]
  CL/F: 0.906 L/h
  Cmax (total): 3.33 µg/mL
[2]; [9]
  change of Cmax in the fed state: ~33%
  decrease of AUC with food: approximately 13%
[2]; [10]
  CL/F: 1.03 L/h
  Cmax (total): 2.21 µg/mL
  Tmax (median): 8 h and 8.00 h
[2]; [11]
  CL/F: 1.04 L/h
  Cmax (total): 5.51 µg/mL
[2]; [12]
  CL/F: 0.944 L/h
  Cmax (total): 8.33 µg/mL
[2]; [13]
  Power model intercept, AUCinf (μg · h/mL): 0.944
  Power model intercept, Cmax (μg/mL): 0.0966
[2]; 15 mg, 15 mg single oral, fasted, suspension (C1), read-out: AUC0-24 (total)
  AUC(0-t): 12100 ng·h/mL
[2]; 15 mg, 15 mg single oral, fasted, suspension (C1), read-out: AUCinf (total)
  AUC(0-inf): 15000 ng·h/mL
[2]; 15 mg, 15 mg single oral, fasted, suspension (C1), read-out: Tmax (median)
  Tmax: 3.5 h
[2]; 15 mg, 15 mg single oral, fasted, suspension (C1)
  Vd/F: 14.1 L
[2]; 15 mg, 15 mg single oral, fasted, suspension (C1), read-out: t1/2 (converted)
  half-life: 581 min
[2]; 50 mg, 50 mg single oral, fasted, IR capsule (C7), read-out: AUC0-24 (total)
  AUC(0-t): 41900 ng·h/mL
[2]; 50 mg, 50 mg single oral, fasted, IR capsule (C7), read-out: AUCinf (total)
  AUC(0-inf): 51300 ng·h/mL
[2]; 50 mg, 50 mg single oral, fasted, IR capsule (C7), read-out: Tmax (median)
  Tmax: 1.75 h
[2]; 50 mg, 50 mg single oral, fasted, IR capsule (C7)
  Vd/F: 14.9 L
[2]; 50 mg, 50 mg single oral, fasted, IR capsule (C7), read-out: t1/2 (converted)
  half-life: 630 min
[2]; 50 mg, 50 mg single oral, fasted, suspension (C2), read-out: AUC0-24 (total)
  AUC(0-t): 42600 ng·h/mL
[2]; 50 mg, 50 mg single oral, fasted, suspension (C2), read-out: AUCinf (total)
  AUC(0-inf): 59600 ng·h/mL
[2]; 50 mg, 50 mg single oral, fasted, suspension (C2), read-out: Tmax (median)
  Tmax: 3 h
[2]; 50 mg, 50 mg single oral, fasted, suspension (C2)
  Vd/F: 16 L
[2]; 50 mg, 50 mg single oral, fasted, suspension (C2), read-out: t1/2 (converted)
  half-life: 750 min
[2]; 50 mg, 50 mg single oral, fasted, read-out: Geometric Least Squares Mean AUCinf, Fasted
  AUC(0-inf): 57400 ng·h/mL
[2]; 50 mg, 50 mg single oral, fasted, read-out: Geometric Least Squares Mean AUClast, Fasted
  AUC(0-t): 57100 ng·h/mL
[2]; 50 mg, 50 mg single oral, fasted, read-out: Geometric Least Squares Mean Cmax, Fasted
  Cmax: 3250 ng/mL
[2]; 50 mg, 50 mg single oral, fed (high-fat, high-calorie meal), read-out: Geometric Least Squares Mean Cmax, Fed
  Cmax: 2170 ng/mL
[2]; 50 mg, 50 mg single oral, fed, suspension (C6), read-out: AUC0-24 (total)
  AUC(0-t): 34000 ng·h/mL
[2]; 50 mg, 50 mg single oral, fed, suspension (C6), read-out: AUCinf (total)
  AUC(0-inf): 51200 ng·h/mL
[2]; 50 mg, 50 mg single oral, fed, suspension (C6), read-out: Tmax (median)
  Tmax: 8 h
[2]; 50 mg, 50 mg single oral, fed, suspension (C6)
  Vd/F: 16.3 L
[2]; 50 mg, 50 mg single oral, fed, suspension (C6), read-out: t1/2 (converted)
  half-life: 702 min
[2]; 50 mg, 50 mg single oral, fed, read-out: Geometric Least Squares Mean AUCinf, Fed
  AUC(0-inf): 49900 ng·h/mL
[2]; 50 mg, 50 mg single oral, fed, read-out: Geometric Least Squares Mean AUClast, Fed
  AUC(0-t): 49600 ng·h/mL
[2]; 100 mg, 100 mg single oral, fasted, suspension (C3), read-out: AUC0-24 (total)
  AUC(0-t): 71000 ng·h/mL
[2]; 100 mg, 100 mg single oral, fasted, suspension (C3), read-out: AUCinf (total)
  AUC(0-inf): 99700 ng·h/mL
[2]; 100 mg, 100 mg single oral, fasted, suspension (C3), read-out: Tmax (median)
  Tmax: 4 h
[2]; 100 mg, 100 mg single oral, fasted, suspension (C3)
  Vd/F: 18.6 L
[2]; 100 mg, 100 mg single oral, fasted, suspension (C3), read-out: t1/2 (converted)
  half-life: 750 min
[2]; 150 mg, 150 mg single oral, fasted, suspension (C4), read-out: AUC0-24 (total)
  AUC(0-t): 114000 ng·h/mL
[2]; 150 mg, 150 mg single oral, fasted, suspension (C4), read-out: AUCinf (total)
  AUC(0-inf): 173000 ng·h/mL
[2]; 150 mg, 150 mg single oral, fasted, suspension (C4), read-out: Tmax (median)
  Tmax: 4 h
[2]; 150 mg, 150 mg single oral, fasted, suspension (C4)
  Vd/F: 15.5 L
[2]; 150 mg, 150 mg single oral, fasted, suspension (C4), read-out: t1/2 (converted)
  half-life: 720 min
[2]; single oral dose, fasted conditions, read-out: median Tmax, range over doses
  Tmax: 3 to 5 h
[2]; single oral doses 15 to 150 mg, read-out: average terminal half-life
  half-life: 600 to 780 min
[2]; single oral doses 15 to 150 mg
  total plasma clearance: approximately 1.0 L/hr
  volume of distribution: 14 to 18 L
[3]; 25 mg, 25 mg once daily, Day 1
  Cmax: 1760 ng/mL
[3]; 25 mg, 25 mg once daily, Day 1, read-out: AUC0-24
  AUC(0-t): 21200 ng·h/mL
[3]; 25 mg, 25 mg once daily, Day 1, read-out: Tmax (median)
  Tmax: 3.5 h
[3]; 25 mg, 25 mg once daily, Day 10
  Cmax: 2480 ng/mL
[3]; 25 mg, 25 mg once daily, Day 10, read-out: AUC0-24
  AUC(0-t): 30800 ng·h/mL
[3]; 25 mg, 25 mg once daily, Day 10, read-out: Tmax (median)
  Tmax: 2.25 h
[3]; 50 mg, 50 mg once daily, Day 1
  Cmax: 3550 ng/mL
[3]; 50 mg, 50 mg once daily, Day 1, read-out: AUC0-24
  AUC(0-t): 39600 ng·h/mL
[3]; 50 mg, 50 mg once daily, Day 1, read-out: Tmax (median)
  Tmax: 2 h
[3]; 50 mg, 50 mg once daily, Day 10
  Cmax: 4590 ng/mL
[3]; 50 mg, 50 mg once daily, Day 10, read-out: AUC0-24
  AUC(0-t): 58200 ng·h/mL
[3]; 50 mg, 50 mg once daily, Day 10, read-out: Tmax (median)
  Tmax: 2.5 h
[3]; 75 mg, 75 mg once daily, Day 1
  Cmax: 5200 ng/mL
[3]; 75 mg, 75 mg once daily, Day 1, read-out: AUC0-24
  AUC(0-t): 55600 ng·h/mL
[3]; 75 mg, 75 mg once daily, Day 1, read-out: Tmax (median)
  Tmax: 1.75 h
[3]; 75 mg, 75 mg once daily, Day 10
  Cmax: 6770 ng/mL
[3]; 75 mg, 75 mg once daily, Day 10, read-out: AUC0-24
  AUC(0-t): 84700 ng·h/mL
[3]; 75 mg, 75 mg once daily, Day 10, read-out: Tmax (median)
  Tmax: 1.5 h
[4]; [14]
  patients with sUA levels below 5 mg/dL: 93%
  patients with sUA levels below 6 mg/dL: 96%
[4]; gout patients, 7 days dosing, 50 mg
  sUA level at 24 hr post-dose in all patients: below 6 mg/dL
[4]; gout patients, Compound 1 50 mg once daily, from 8.6±1.1 mg/dL
  sUA after treatment in mildly renal impaired patients: 4.5 ± 0.8 mg/dL
[4]; gout patients, mean baseline 8.9 mg/dL, once daily, Compound 1 50 mg, febuxostat 40 mg, allopurinol 300 mg, alone (Day 7/Day 21) or combined
  mean sUA level reached at maximum: 4.2 mg/dL
[4]; gout patients, once daily, Compound 1 50 mg, febuxostat 40 mg, allopurinol 300 mg, alone (Day 7/Day 21) or combined
  reduction of mean sUA from baseline: 53%
[4]; one subject with albuminuria, sequential 7-day periods: Compound 1 50 mg (Day 7), Compound 1 50 mg/allopurinol 300 mg (Day 14), allopurinol 300 mg (Day 21)
  sUA % change from baseline: −50.9%
[5]
  UACR: 41 mg/g
  UACR % change from baseline: −57.4%
